Our source for the TGI values is PubChem BioAssay (NCI).

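Five compound concentrations were applied to cells in 96-well plates for 48 hours; endpoints were derived by simple linear interpolation of the resulting dose-response curve. TGI marks complete inhibition of growth.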 Bounds are passed on as bounds.

Among the test systems are HT29 colon; NCI-H522 lung; OVCAR-3 ovarian; K-562 leukemia; NCI-H460 lung; SNB-19 CNS; TK-10 renal; OVCAR-8 ovarian; SW-620 colon; IGROV1 ovarian.
Common to all, as to assay: growth of human tumour cells (NCI), 48 h

Take `COc1cccc(CCNc2c(C#N)c3n(c4ccccc4[n+]3C)c3ncccc23)c1`: the TGI in the experiment with HT29 colon was 3.14 µM; with NCI-H522 lung, 10.3 µM; in the experiment with OVCAR-3 ovarian it was 48 µM; in the experiment on K-562 leukemia it was above 100 µM; with NCI-H460 lung it was 3.16 µM; with SNB-19 CNS it was 18.8 µM. For the same compound, the results for the TGI in the experiment on TK-10 renal and with OVCAR-8 ovarian were 50.1 µM and 3.87 µM, respectively.
On to `COc1ccc([C@H]2CC3C(=O)N(c4ccc(OC)cc4)C(=O)C3c3[nH]c4ccccc4c32)cc1` (some centres undefined), for which the TGI in the experiment with NCI-H522 lung, in the experiment with SW-620 colon, in the experiment with OVCAR-3 ovarian, with K-562 leukemia, in the experiment on NCI-H460 lung and in the experiment with SNB-19 CNS was above 100 µM each time. In addition, the TGI with IGROV1 ovarian, in the experiment with TK-10 renal and in the experiment on OVCAR-8 ovarian was above 100 µM each time.
`CCOS(=O)(=O)c1ccc(-c2c3nc(c(-c4ccc(S(=O)(=O)OCC)cc4)c4ccc([nH]4)c(-c4ccc(S(=O)(=O)OCC)cc4)c4nc(c(-c5ccc(S(=O)(=O)OCC)cc5)c5ccc2[nH]5)C=C4)C=C3)cc1`: the TGI in the experiment with HT29 colon was above 100 µM; with NCI-H522 lung, above 31.6 µM; in the experiment on SW-620 colon it was above 31.6 µM; with NCI-H460 lung it was above 31.6 µM; in the experiment on SNB-19 CNS, above 31.6 µM; in the experiment with IGROV1 ovarian, above 100 µM. The TGI with TK-10 renal and with OVCAR-8 ovarian was above 31.6 µM throughout.
As to `CC(=O)NC(C)(C)C1CCC(C)CC1` (centres undefined), the TGI with HT29 colon, with SW-620 colon, in the experiment with OVCAR-3 ovarian, in the experiment with K-562 leukemia, in the experiment on NCI-H460 lung and with SNB-19 CNS was above 100 µM each time. In addition, the TGI with IGROV1 ovarian, in the experiment on TK-10 renal and in the experiment with OVCAR-8 ovarian was above 100 µM each time.
In the case of `COc1ccc(C2=NNC(=O)c3ccccc3N2c2nc(-c3cccs3)nc3cc(OC)c(OC)cc23)cc1`, the TGI in the experiment with NCI-H522 lung is 88 µM; with SW-620 colon, above 100 µM; in the experiment on OVCAR-3 ovarian, 9.24 µM; in the experiment on K-562 leukemia, above 100 µM; in the experiment with NCI-H460 lung, above 100 µM; in the experiment with SNB-19 CNS it was above 100 µM. The results for the TGI in the experiment on IGROV1 ovarian, in the experiment on TK-10 renal and in the experiment with OVCAR-8 ovarian were above 100 µM, 21 µM and above 100 µM, respectively.
On to `O=C(CC(C(=O)c1cccs1)c1ccsc1)c1ccc(Cl)s1` (centres undefined), for which the TGI in the experiment on HT29 colon, in the experiment on SW-620 colon, in the experiment with K-562 leukemia, with NCI-H460 lung, in the experiment on SNB-19 CNS and in the experiment on IGROV1 ovarian was above 100 µM throughout. The TGI in the experiment with TK-10 renal and in the experiment with OVCAR-8 ovarian was above 100 µM throughout.
On to `O=S(=O)(c1ccccc1)c1ccc(-c2nc(-c3ccc4c(c3)Sc3ccccc3S4)cs2)cc1`, for which the TGI with HT29 colon, in the experiment on SW-620 colon, in the experiment on OVCAR-3 ovarian, in the experiment with K-562 leukemia, in the experiment on NCI-H460 lung and with SNB-19 CNS was above 100 µM each time. Further, the TGI with TK-10 renal was 73.6 µM; in the experiment with OVCAR-8 ovarian, above 100 µM.
On to `COc1ccccc1C(=O)OCC1CCCN2CCCCC12` (centres undefined), for which the TGI in the experiment with HT29 colon was 32.2 µM; in the experiment on SW-620 colon it was above 100 µM; in the experiment with K-562 leukemia, above 100 µM; in the experiment with NCI-H460 lung, 52 µM; in the experiment on SNB-19 CNS it was above 100 µM; in the experiment with TK-10 renal, above 100 µM. In the experiment with OVCAR-8 ovarian, this compound returned a TGI of 45.8 µM.
Turning to `O=C1CN(c2cccc(C(F)(F)F)c2)C(=O)CN1CCN1CC(=O)N(c2cccc(C(F)(F)F)c2)CC1=O`, the TGI in the experiment on HT29 colon, in the experiment on NCI-H522 lung, in the experiment with SW-620 colon, in the experiment with K-562 leukemia, in the experiment on NCI-H460 lung and in the experiment with SNB-19 CNS was above 100 µM each time. For the same compound, the TGI in the experiment on IGROV1 ovarian, with TK-10 renal and in the experiment with OVCAR-8 ovarian was above 100 µM in each case.
`COc1ccc(N2C(=O)/C(=C/c3ccc(N(CCC#N)CCC#N)cc3)N=C2c2ccccc2)cc1`: the TGI in the experiment on HT29 colon, with SW-620 colon, in the experiment with OVCAR-3 ovarian, in the experiment with K-562 leukemia, in the experiment with NCI-H460 lung and in the experiment with SNB-19 CNS was above 100 µM in each case. Moreover, the TGI in the experiment on IGROV1 ovarian, in the experiment on TK-10 renal and in the experiment on OVCAR-8 ovarian was above 100 µM throughout.
`O=C1Nc2ccc(Br)cc2/C1=N/N1C(=O)C(=O)N(C2CCCCC2)C1=S`: the TGI with HT29 colon came out at 7.91 µM; in the experiment with SW-620 colon, 14.8 µM; in the experiment on OVCAR-3 ovarian, 10.5 µM; with K-562 leukemia it was 12.6 µM; in the experiment with NCI-H460 lung it was 15.7 µM; in the experiment with SNB-19 CNS, 69.1 µM. In the experiment on TK-10 renal, this compound returned a TGI of 35 µM.
With `Cn1cc2c3ccccc3nc-2c2ccccc21`, the TGI in the experiment on HT29 colon was determined as 5.35 µM; with NCI-H522 lung, 3.18 µM; in the experiment on SW-620 colon, 3.89 µM; in the experiment on OVCAR-3 ovarian, 6.88 µM; in the experiment with K-562 leukemia it was 9.65 µM; in the experiment on NCI-H460 lung, 4.34 µM. Besides, the TGI in the experiment on SNB-19 CNS was 10.6 µM; in the experiment on TK-10 renal, 20.6 µM; in the experiment with OVCAR-8 ovarian, 3.42 µM.
As to `COc1ccc(/C=C/C(=O)c2ccc(Br)cc2)cc1`, the TGI in the experiment with HT29 colon, in the experiment on SW-620 colon, with K-562 leukemia, in the experiment on NCI-H460 lung, in the experiment with SNB-19 CNS and in the experiment on IGROV1 ovarian was above 100 µM throughout. The TGI in the experiment with TK-10 renal and in the experiment with OVCAR-8 ovarian was above 100 µM throughout.
On to `O=C(O)c1nn(-c2ccccc2)nc1-c1nn(-c2ccccc2)nc1C(=O)O`, for which the TGI in the experiment on HT29 colon, in the experiment with SW-620 colon, in the experiment on OVCAR-3 ovarian, in the experiment with K-562 leukemia, with NCI-H460 lung and with SNB-19 CNS was above 100 µM each time. Also, the TGI in the experiment on IGROV1 ovarian, in the experiment on TK-10 renal and with OVCAR-8 ovarian was above 100 µM in each case.
Take `COc1ccc2[nH]c3c(c2c1)CC(=O)N1CCC[C@H](C1)CC31OCCCO1`: the TGI in the experiment on HT29 colon, in the experiment with SW-620 colon, with OVCAR-3 ovarian, with NCI-H460 lung, in the experiment with SNB-19 CNS and with IGROV1 ovarian was above 100 µM throughout. Further, the TGI in the experiment on TK-10 renal and with OVCAR-8 ovarian was above 100 µM throughout.
As for `O=c1[nH]c2ccc(CC(=S)N3CCOCC3)cc2o1`, the TGI with HT29 colon, in the experiment on SW-620 colon, in the experiment with OVCAR-3 ovarian, in the experiment with NCI-H460 lung, in the experiment with IGROV1 ovarian and with TK-10 renal was above 100 µM each time. Besides, the TGI in the experiment on OVCAR-8 ovarian was above 100 µM.
Regarding `Fc1ccc(C(OCCN2CCC3CCC(C2)N3C/C=C/c2cccs2)c2ccc(F)cc2)cc1` (centres undefined), the TGI in the experiment on HT29 colon turned out to be 15.4 µM; with NCI-H522 lung it was 17.7 µM; in the experiment on SW-620 colon, 19.1 µM; in the experiment with OVCAR-3 ovarian it was 25.3 µM; in the experiment with NCI-H460 lung it was 15.4 µM; with SNB-19 CNS, 27.9 µM. The TGI was determined as 21.6 µM with IGROV1 ovarian, 24.3 µM in the experiment on TK-10 renal and 15.8 µM with OVCAR-8 ovarian.
As for `CC(NNC(=O)c1ccncc1)c1cccc(C(F)(F)F)c1` (centres undefined), the TGI with HT29 colon, in the experiment with NCI-H522 lung, in the experiment with SW-620 colon, with K-562 leukemia, in the experiment with NCI-H460 lung and in the experiment with IGROV1 ovarian was above 100 µM in each case. Further, the TGI in the experiment with TK-10 renal and in the experiment with OVCAR-8 ovarian was above 100 µM throughout.
With `CCCCCCCCCCCCOC1C(COCCN2CCCCC2)OC2OC(C)(C)OC21` (centres undefined), the TGI in the experiment on HT29 colon was 2.53 µM; in the experiment with NCI-H522 lung, 2.97 µM; with SW-620 colon it was 3.23 µM; in the experiment on OVCAR-3 ovarian, 7.25 µM; with NCI-H460 lung, 3.48 µM; in the experiment on SNB-19 CNS, 8.07 µM. The TGI in the experiment with IGROV1 ovarian was 3.26 µM; with TK-10 renal, 3.55 µM; in the experiment with OVCAR-8 ovarian, 3.41 µM.
On to `Cc1ccc(S(=O)(=O)N(CCNC(=O)c2cccc(O)c2O)c2cc3c4c(c2)Oc2cccc5c2C4(C)c2c(cccc2O3)O5)cc1`, for which the TGI in the experiment on HT29 colon, in the experiment on SW-620 colon, in the experiment with OVCAR-3 ovarian, in the experiment with K-562 leukemia, in the experiment with NCI-H460 lung and with SNB-19 CNS was above 100 µM throughout. The TGI in the experiment with IGROV1 ovarian, with TK-10 renal and in the experiment with OVCAR-8 ovarian was above 100 µM throughout.
With `CSc1ncc2c(n1)-c1ccccc1OC2`, the TGI in the experiment on HT29 colon, with NCI-H522 lung, in the experiment on SW-620 colon, in the experiment with OVCAR-3 ovarian, with NCI-H460 lung and in the experiment with SNB-19 CNS was above 100 µM throughout. Moreover, the TGI in the experiment on IGROV1 ovarian, in the experiment with TK-10 renal and in the experiment on OVCAR-8 ovarian was above 100 µM throughout.
In the case of `COc1ccc(-c2nnc3n(C)c4ccccc4n3c2=O)cc1`, the TGI in the experiment with HT29 colon, in the experiment with NCI-H522 lung, in the experiment on SW-620 colon, with NCI-H460 lung, in the experiment with SNB-19 CNS and with IGROV1 ovarian was above 100 µM in each case. The TGI in the experiment with TK-10 renal and in the experiment on OVCAR-8 ovarian was above 100 µM in each case.
